Columns and labels:
morningglory = assay: Test B pre/postemergence morningglory; format: in vivo, Ipomoea hederacea
How it was run: (§1)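 Response is a visual 0-to-10 score relative to untreated plants, where 0 means no effect and 10 means complete control, taken twelve to sixteen days after application. Treatments went onto soil at planting and onto foliage of 1- to 4-leaf plants, using a surfactant-containing non-phytotoxic solvent.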

crabgrass = assay: Test B pre/postemergence crabgrass; format: in vivo, Digitaria sanguinalis
How it was run: as §1

blackgrass = assay: Test B pre/postemergence blackgrass; format: in vivo, Alopecurus myosuroides
How it was run: as §1

bamyardgrass = assay: Test B flood test barnyardgrass; format: in vivo, Echinochloa crus-galli
How it was run: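 Each value is a visual injury score relative to controls, with 10 meaning complete control and 0 no effect. Evaluation took place twelve to sixteen days after the 2-leaf-stage plants were treated and kept in the greenhouse.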

[1] = Postemergence, Rate 250 g/ha, scale 0 to 10, 0 no effect, 10 complete control
[2] = Postemergence, Rate 1000 g/ha, scale 0 to 10 (0 no effect, 10 complete control)
[3] = Preemergence, Rate 125 g/ha, scale 0 to 10 (0 no effect, 10 complete control)
[4] = Preemergence, Rate 250 g/ha, scale of 0 to 10 where 0 is no effect and 10 is complete control
[5] = Preemergence, Rate 500 g/ha, scale 0 (no effect) to 10 (complete control)
[6] = Rate 125 g/ha, Postemergence, scale 0 to 10, 0 no effect, 10 complete control
[7] = Rate 500 g/ha, Postemergence, 0 to 10 scale (0 no effect, 10 complete control)
[8] = Rate 1000 g/ha, Preemergence, scale 0 to 10 (0 no effect, 10 complete control)
[9] = Rate 125 g/ha, Postemergence section (flood test species), scale 0 to 10, 0 no effect, 10 complete control
[10] = Rate 500 g/ha, Postemergence section of Table B, 0 to 10 scale (0 no effect, 10 complete control)
[11] = flood test, listed under Postemergence, Rate 250 g/ha, scale 0 to 10, 0 no effect, 10 complete control
[12] = Postemergence, Rate 62 g/ha, scale 0 to 10, 0 is no effect, 10 is complete control
[13] = Preemergence, Rate 62 g/ha, scale 0 to 10, 0 is no effect, 10 is complete control
[14] = Preemergence, Rate 31 g/ha, visual rating, scale 0 to 10 (0 no effect, 10 complete control)
[15] = Rate 31 g/ha, Postemergence, scale 0 to 10

SMILES	Morningglory plant response rating (morningglory; [1])	Plant response rating, Morningglory (morningglory; [3])	Plant response rating, Morningglory (morningglory; [4])	Morningglory plant response rating (morningglory; [5])	Morningglory plant response rating (morningglory; [6])	Morningglory plant response rating (morningglory; [7])	Crabgrass plant response rating (crabgrass; [1])	Plant response rating, Crabgrass (crabgrass; [3])	Crabgrass plant response rating (crabgrass; [5])	Crabgrass plant response rating (crabgrass; [6])	Crabgrass plant response rating (crabgrass; [7])	Blackgrass plant response rating (blackgrass; [1])	Plant response rating, Blackgrass (blackgrass; [3])	Plant response rating, Blackgrass (blackgrass; [4])	Blackgrass plant response rating (blackgrass; [5])	Blackgrass plant response rating (blackgrass; [6])	Blackgrass plant response rating (blackgrass; [7])	Barnyardgrass plant response rating (bamyardgrass; [9])	Barnyardgrass plant response rating (bamyardgrass; [10])	Barnyardgrass plant response rating (bamyardgrass; [11])	further results
CCN(CC)C(=O)n1oc(=O)n(-c2ccc(OC)cc2)c1=O [Compound 1]	0	0	0	0	0	0	5	4	8	0	8	0	0	0	2	0	2	0	0	0	Morningglory plant response rating (morningglory; [2]): 0; Plant response rating, Morningglory (morningglory; [8]): 0; Crabgrass plant response rating (crabgrass; [2]): 9; Plant response rating, Crabgrass (crabgrass; [4]): 8; Plant response rating, Crabgrass (crabgrass; [8]): 9; Blackgrass plant response rating (blackgrass; [2]): 8; Plant response rating, Blackgrass (blackgrass; [8]): 4; Barnyardgrass plant response rating (bamyardgrass; [2]): 0
COc1ccc(-n2c(=O)on(C(=O)N(C3=CCOCC3)C(C)C)c2=O)cc1 [Compound 6]	2	0	0	0	0	5	2	7	9	0	5	7	0	0	2	4	7	0	0	0	Morningglory plant response rating (morningglory; [2]): 7; Plant response rating, Morningglory (morningglory; [8]): 0; Crabgrass plant response rating (crabgrass; [2]): 7; Plant response rating, Crabgrass (crabgrass; [8]): 10; Blackgrass plant response rating (blackgrass; [2]): 7; Plant response rating, Blackgrass (blackgrass; [8]): 7; Barnyardgrass plant response rating (bamyardgrass; [2]): 8
CC(C)N(C(=O)n1oc(=O)n(-c2cc(Cl)cc(Cl)c2)c1=O)C1=CCOCC1 [Compound 9]	0	0	0	0	0	0	0	3	3	0	0	0	0	0	0	0	2	0	0	0	Morningglory plant response rating (morningglory; [2]): 2; Plant response rating, Morningglory (morningglory; [8]): 0; Crabgrass plant response rating (crabgrass; [2]): 0; Plant response rating, Crabgrass (crabgrass; [4]): 0; Plant response rating, Crabgrass (crabgrass; [8]): 3; Blackgrass plant response rating (blackgrass; [2]): 3; Plant response rating, Blackgrass (blackgrass; [8]): 0; Barnyardgrass plant response rating (bamyardgrass; [2]): 0
Cc1ccccc1-n1c(=O)on(C(=O)N(C2=CCOCC2)C(C)C)c1=O [Compound 10]	2	0	0	0	2	3	9	7	7	6	9	4	4	8	9	0	7	0	0	0	Morningglory plant response rating (morningglory; [12]): 0; Plant response rating, Morningglory (morningglory; [13]): 0; Crabgrass plant response rating (crabgrass; [12]): 3; Plant response rating, Crabgrass (crabgrass; [13]): 2; Blackgrass plant response rating (blackgrass; [12]): 0; Plant response rating, Blackgrass (blackgrass; [13]): 1; Barnyardgrass plant response rating (bamyardgrass; [12]): 0
CC(C)N(C(=O)n1oc(=O)n(-c2ccc(OC(F)(F)F)cc2)c1=O)C1=CCOCC1 [Compound 13]	0	0	0	0	0	0	5	2	5	1	9	3	0	0	6	0	4	0	0	0	Morningglory plant response rating (morningglory; [2]): 0; Plant response rating, Morningglory (morningglory; [8]): 2; Crabgrass plant response rating (crabgrass; [2]): 9; Plant response rating, Crabgrass (crabgrass; [4]): 5; Plant response rating, Crabgrass (crabgrass; [8]): 8; Blackgrass plant response rating (blackgrass; [2]): 8; Plant response rating, Blackgrass (blackgrass; [8]): 9; Barnyardgrass plant response rating (bamyardgrass; [2]): 0
CCN(C(=O)n1oc(=O)n(-c2ccc(C)cc2C)c1=O)C1CCCCC1 [Compound 26]	3	0	0	–	1	–	1	0	–	0	–	0	0	0	–	0	–	0	0	0	Morningglory plant response rating (morningglory; [12]): 1; Morningglory plant response rating (morningglory; [14]): 0; Plant response rating, Morningglory (morningglory; [13]): 0; Morningglory plant response rating (morningglory; [15]): 0; Crabgrass plant response rating (crabgrass; [12]): 0; Crabgrass plant response rating (crabgrass; [14]): 0; Plant response rating, Crabgrass (crabgrass; [13]): 0; Plant response rating, Crabgrass (crabgrass; [4]): 3; Crabgrass plant response rating (crabgrass; [15]): 0; Blackgrass plant response rating (blackgrass; [12]): 0; Blackgrass plant response rating (blackgrass; [14]): 0; Plant response rating, Blackgrass (blackgrass; [13]): 0; Blackgrass plant response rating (blackgrass; [15]): 0; Barnyardgrass plant response rating (bamyardgrass; [12]): 0
COc1ccc(-n2c(=O)on(C(=O)N(c3ccc(F)cc3)C(C)C)c2=O)c(C)c1 [Compound 35]	8	0	0	0	7	8	1	3	10	0	7	1	2	2	3	0	7	0	0	0	Morningglory plant response rating (morningglory; [12]): 4; Plant response rating, Morningglory (morningglory; [13]): 0; Crabgrass plant response rating (crabgrass; [12]): 0; Plant response rating, Crabgrass (crabgrass; [13]): 3; Plant response rating, Crabgrass (crabgrass; [4]): 6; Blackgrass plant response rating (blackgrass; [12]): 0; Plant response rating, Blackgrass (blackgrass; [13]): 0; Barnyardgrass plant response rating (bamyardgrass; [12]): 0; Barnyardgrass plant response rating (bamyardgrass; Rate 125 g/ha, Pre-emergence, flood test species, scale 0 to 10 where 0 is no effect and 10 is complete control): 0; Barnyardgrass plant response rating (bamyardgrass; Rate 250 g/ha, headed Pre-emergence (flood test species), scale 0 to 10 (0 no effect, 10 complete control)): 0; Plant response rating, Barnyardgrass (bamyardgrass; Rate 500 g/ha, headed Pre-emergence (flood test species), scale 0 to 10 (0 no effect, 10 complete control)): 0; Barnyardgrass plant response rating (bamyardgrass; Rate 1000 g/ha, Pre-emergence (as headed), scale 0 to 10): 0

Source: patent publication US6737383B1, “Herbicidal oxadiazolidines” (priority 1999, dated 2004)
